Results: patent US12421211B2, “Heterocyclic compounds” (Hoffmann-La Roche Inc., priority 2021, dated 2025)
Where a name gives a salt, the structure may show the parent alone.

Tested on: Acinetobacter baumannii ATCC17961
Experiment: Antimicrobial susceptibility testing: 90% growth inhibitory concentration (IC90) determination
Assay type: cell-based
Settings: Acinetobacter baumannii, ATCC17961, 16 h, 90% growth inhibitory concentration, Acinetobacter baumannii ATCC17961, Iso-Sensitest broth, OD 600 nm over 16 h; read-out: ATCC 17961 IC90
Outline: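 Growth inhibition derived in log phase from OD600 kinetics (every 20 minutes, 16h, 35±2° C) of ATCC17961 in Iso-Sensitest medium, inoculum ~5×10^5 CFU/ml. Compounds tested as twofold series, 10 points (e.g. 50 to 0.097 μM final); IC90 and IC50 reported.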

Structure (SMILES) | IC90
Cn1cc(-c2n[nH]cc2-c2ccc(-c3cnc(C(=O)Nc4ccc(C(=O)N5CCN(C(=O)C6CC[N+](C)(C)CC6)CC5)c(Cl)c4)n3C)c(F)c2F)cn1 [Example F47, N-[3-chloro-4-[4-(1,1-dimethylpiperidin-1-ium-4-carbonyl)piperazine-1-carbonyl]phenyl]-5-[2,3-difluoro-4-[3-(1-methylpyrazol-4-yl)-1H-pyrazol-4-yl]phenyl]-1-methyl-imidazole-2-carboxamide; formate] | 530 nM
Cn1c(-c2ccc(-c3c[nH]nc3-c3cn[nH]c3)c(F)c2F)cnc1C(=O)Nc1ccc(C(=O)N2CCN(C(=O)C3CC[N+](C)(C)CC3)CC2)c(Cl)c1 [Example F48, N-[3-chloro-4-[4-(1,1-dimethylpiperidin-1-ium-4-carbonyl)piperazine-1-carbonyl]phenyl]-5-[2,3-difluoro-4-[3-(1H-pyrazol-4-yl)-1H-pyrazol-4-yl]phenyl]-1-methyl-imidazole-2-carboxamide; formate] | 470 nM
Cc1n[nH]cc1-c1ccc(-c2cnc(C(=O)Nc3ccc(C(=O)N4CCN(C(=O)C[N+](C)(C)C)CC4)c(Cl)c3)n2C)cc1 [Example F51, [2-[4-[2-chloro-4-[[1-methyl-5-[4-(3-methyl-1H-pyrazol-4-yl)phenyl]imidazole-2-carbonyl]amino]benzoyl]piperazin-1-yl]-2-oxo-ethyl]-trimethyl-ammonium; formate] | 210 nM
Cc1n[nH]c(C)c1-c1ccc(-c2cnc(C(=O)Nc3ccc(C(=O)N4CCN(C(=O)C[N+](C)(C)C)CC4)c(Cl)c3)n2C)cc1 [Example F52, [2-[4-[2-chloro-4-[[5-[4-(3,5-dimethyl-1H-pyrazol-4-yl)phenyl]-1-methyl-imidazole-2-carbonyl]amino]benzoyl]piperazin-1-yl]-2-oxo-ethyl]-trimethyl-ammonium; 2,2,2-trifluoroacetate] | 270 nM
COCCn1ncc(-c2ccc(-c3cnc(C(=O)Nc4ccc(C(=O)N5CCN(C(=O)C6CC[N+](C)(C)CC6)CC5)c(Cl)c4)n3C)c(F)n2)c1C [Example F57, N-[3-chloro-4-[4-(1,1-dimethylpiperidin-1-ium-4-carbonyl)piperazine-1-carbonyl]phenyl]-5-[2-fluoro-6-[1-(2-methoxyethyl)-5-methyl-pyrazol-4-yl]-3-pyridyl]-1-methyl-imidazole-2-carboxamide; formate] | 880 nM
Cc1nn(CCCC#N)c(C)c1-c1ccc(-c2cnc(C(=O)Nc3ccc(C(=O)N4CCN(C(=O)[C@@H]5C[C@@H](O)C[N+]5(C)C)CC4)c(Cl)c3)n2C)c(F)c1F [Example F58, N-[3-chloro-4-[4-[(2S,4R)-4-hydroxy-1,1-dimethyl-pyrrolidin-1-ium-2-carbonyl]piperazine-1-carbonyl]phenyl]-5-[4-[1-(3-cyanopropyl)-3,5-dimethyl-pyrazol-4-yl]-2,3-difluoro-phenyl]-1-methyl-imidazole-2-carboxamide; formate] | 480 nM
COc1ccc(-c2[nH]ncc2-c2ccc(-c3cnc(C(=O)Nc4ccc(C(=O)N5CCN(C(=O)C6CC[N+](C)(C)CC6)CC5)c(Cl)c4)n3C)c(F)n2)cc1 [Example F59, N-[3-chloro-4-[4-(1,1-dimethylpiperidin-1-ium-4-carbonyl)piperazine-1-carbonyl]phenyl]-5-[2-fluoro-6-[5-(4-methoxyphenyl)-1H-pyrazol-4-yl]-3-pyridyl]-1-methyl-imidazole-2-carboxamide; formate] | 750 nM
Cn1c(-c2ccc(-c3ccc(NCCC(N)=O)cn3)c(F)c2F)cnc1C(=O)Nc1ccc(C(=O)N2CCN(C(=O)C3CC[N+](C)(C)CC3)CC2)c(Cl)c1 [Example F63, 5-[4-[5-[(3-amino-3-oxo-propyl)amino]-2-pyridyl]-2,3-difluoro-phenyl]-N-[3-chloro-4-[4-(1,1-dimethylpiperidin-1-ium-4-carbonyl)piperazine-1-carbonyl]phenyl]-1-methyl-imidazole-2-carboxamide; formate] | 560 nM
Cc1cc(N)cnc1-c1ccc(-c2cnc(C(=O)Nc3ccc(C(=O)N4CCN(C(=O)C5CC[N+](C)(C)CC5)CC4)c(Cl)c3)n2C)c(F)c1F [Example F64, 5-[4-(5-amino-3-methyl-2-pyridyl)-2,3-difluoro-phenyl]-N-[3-chloro-4-[4-(1,1-dimethylpiperidin-1-ium-4-carbonyl)piperazine-1-carbonyl]phenyl]-1-methyl-imidazole-2-carboxamide; formate] | 250 nM
Cn1c(-c2ccc(-c3ccc(N)cn3)c(F)c2F)cnc1C(=O)Nc1ccc(C(=O)N2CCN(C(=O)C3CC[N+](C)(C)CC3)CC2)c(Cl)c1 [Example F65, 5-[4-(5-amino-2-pyridyl)-2,3-difluoro-phenyl]-N-[3-chloro-4-[4-(1,1-dimethylpiperidin-1-ium-4-carbonyl)piperazine-1-carbonyl]phenyl]-1-methyl-imidazole-2-carboxamide; formate] | 370 nM
COCCn1ncc(-c2ccc(-c3cnc(C(=O)Nc4ccc(C(=O)N[C@H]5[C@@H]6CN(C(=O)N[C@@H]7C[N+](C)(C)C[C@H]7O)C[C@@H]65)c(Cl)c4)n3C)c(F)c2F)c1C [Example F66, (1S,5R)-6-[[2-chloro-4-[[5-[2,3-difluoro-4-[1-(2-methoxyethyl)-5-methyl-pyrazol-4-yl]phenyl]-1-methyl-imidazole-2-carbonyl]amino]benzoyl]amino]-N-[(3R,4R)-4-hydroxy-1,1-dimethyl-pyrrolidin-1-ium-3-yl]-3-azabicyclo[3.1.0]hexane-3-carboxamide; formate] | 29 nM
COCCn1nc(C)c(-c2ccc(-c3cnc(C(=O)Nc4ccc(C(=O)N5CCN(C(=O)C6CC[N+](C)(C)CC6)CC5)c(Cl)c4)n3C)c(F)n2)c1C [Example F67, N-[3-chloro-4-[4-(1,1-dimethylpiperidin-1-ium-4-carbonyl)piperazine-1-carbonyl]phenyl]-5-[2-fluoro-6-[1-(2-methoxyethyl)-3,5-dimethyl-pyrazol-4-yl]-3-pyridyl]-1-methyl-imidazole-2-carboxamide; formate] | 1100 nM

Next, values leading:

IC90 | Structure (SMILES)
1100 nM | Cc1nn(-c2ccccn2)cc1-c1ccc(-c2cnc(C(=O)Nc3ccc(C(=O)N4CCN(C(=O)C5CC[N+](C)(C)CC5)CC4)c(Cl)c3)n2C)c(F)c1F [Example F50, N-[3-chloro-4-[4-(1,1-dimethylpiperidin-1-ium-4-carbonyl)piperazine-1-carbonyl]phenyl]-5-[2,3-difluoro-4-[3-methyl-1-(2-pyridyl)pyrazol-4-yl]phenyl]-1-methyl-imidazole-2-carboxamide; formate]
590 nM | COc1cccc(CCn2cc(-c3ccc(-c4cnc(C(=O)Nc5ccc(C(=O)N6CCN(C(=O)C7CC[N+](C)(C)CC7)CC6)c(Cl)c5)n4C)c(F)c3F)c(C)n2)n1 [Example F54, N-[3-chloro-4-[4-(1,1-dimethylpiperidin-1-ium-4-carbonyl)piperazine-1-carbonyl]phenyl]-5-[2,3-difluoro-4-[1-[2-(6-methoxy-2-pyridyl)ethyl]-3-methyl-pyrazol-4-yl]phenyl]-1-methyl-imidazole-2-carboxamide; formate]
270 nM | COc1cccc(Cn2cc(-c3ccc(-c4cnc(C(=O)Nc5ccc(C(=O)N6CCN(C(=O)C7CC[N+](C)(C)CC7)CC6)c(Cl)c5)n4C)c(F)c3F)c(C)n2)n1 [Example F55, N-[3-chloro-4-[4-(1,1-dimethylpiperidin-1-ium-4-carbonyl)piperazine-1-carbonyl]phenyl]-5-[2,3-difluoro-4-[1-[(6-methoxy-2-pyridyl)methyl]-3-methyl-pyrazol-4-yl]phenyl]-1-methyl-imidazole-2-carboxamide; formate]
330 nM | Cc1nn(Cc2c[nH]nn2)cc1-c1ccc(-c2cnc(C(=O)Nc3ccc(C(=O)N4CCN(C(=O)C5CC[N+](C)(C)CC5)CC4)c(Cl)c3)n2C)c(F)c1F [Example F56, N-[3-chloro-4-[4-(1,1-dimethylpiperidin-1-ium-4-carbonyl)piperazine-1-carbonyl]phenyl]-5-[2,3-difluoro-4-[3-methyl-1-(1H-triazol-4-ylmethyl)pyrazol-4-yl]phenyl]-1-methyl-imidazole-2-carboxamide; formate]
290 nM | Cc1nn(CC(=O)NC(C)C)cc1-c1ccc(-c2cnc(C(=O)Nc3ccc(C(=O)N4CCN(C(=O)C5CC[N+](C)(C)CC5)CC4)c(Cl)c3)n2C)c(F)c1F [Example G1, N-[3-chloro-4-[4-(1,1-dimethylpiperidin-1-ium-4-carbonyl)piperazine-1-carbonyl]phenyl]-5-[2,3-difluoro-4-[1-[2-(isopropylamino)-2-oxo-ethyl]-3-methyl-pyrazol-4-yl]phenyl]-1-methyl-imidazole-2-carboxamide; formate]
320 nM | Cc1nn(CC(=O)NC(C)(C)C)cc1-c1ccc(-c2cnc(C(=O)Nc3ccc(C(=O)N4CCN(C(=O)C5CC[N+](C)(C)CC5)CC4)c(Cl)c3)n2C)c(F)c1F [Example G2, 5-[4-[1-[2-(tert-butylamino)-2-oxo-ethyl]-3-methyl-pyrazol-4-yl]-2,3-difluoro-phenyl]-N-[3-chloro-4-[4-(1,1-dimethylpiperidin-1-ium-4-carbonyl)piperazine-1-carbonyl]phenyl]-1-methyl-imidazole-2-carboxamide; formate]
100 nM | Cc1nn(CC(=O)NC23CC(C2)C3)cc1-c1ccc(-c2cnc(C(=O)Nc3ccc(C(=O)N4CCN(C(=O)C5CC[N+](C)(C)CC5)CC4)c(Cl)c3)n2C)c(F)c1F [Example G3, 5-[4-[1-[2-(1-bicyclo[1.1.1]pentanylamino)-2-oxo-ethyl]-3-methyl-pyrazol-4-yl]-2,3-difluoro-phenyl]-N-[3-chloro-4-[4-(1,1-dimethylpiperidin-1-ium-4-carbonyl)piperazine-1-carbonyl]phenyl]-1-methyl-imidazole-2-carboxamide; formate]
